Results as given in ChEMBL document CHEMBL1201862, “PubChem BioAssay data set” (2004).
Activity calls are given as the source filed them.

Columns and labels:
[1] = target: T1, Corticotropin-releasing factor receptor 2/Corticotropin-releasing factor-binding protein (Homo sapiens, UniProt P24387+Q13324); experiment: Dose Response confirmation of uHTS hits for small molecule antagonists of the CRF-binding protein and CRF-R2 receptor complex.; format: functional; settings: read-out: IC50_Mean
T1 sequence (Q13324 whole entry): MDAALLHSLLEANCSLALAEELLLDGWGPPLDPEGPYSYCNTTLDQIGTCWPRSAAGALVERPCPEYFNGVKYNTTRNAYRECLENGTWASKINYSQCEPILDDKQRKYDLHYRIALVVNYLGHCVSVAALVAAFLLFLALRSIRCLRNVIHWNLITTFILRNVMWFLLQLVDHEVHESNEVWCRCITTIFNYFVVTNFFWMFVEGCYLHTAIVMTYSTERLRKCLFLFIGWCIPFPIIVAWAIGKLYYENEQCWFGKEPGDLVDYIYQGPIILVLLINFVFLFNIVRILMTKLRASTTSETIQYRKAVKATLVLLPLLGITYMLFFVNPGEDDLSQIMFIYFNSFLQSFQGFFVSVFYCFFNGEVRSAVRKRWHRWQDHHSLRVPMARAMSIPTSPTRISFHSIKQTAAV
T1 sequence (P24387 whole entry): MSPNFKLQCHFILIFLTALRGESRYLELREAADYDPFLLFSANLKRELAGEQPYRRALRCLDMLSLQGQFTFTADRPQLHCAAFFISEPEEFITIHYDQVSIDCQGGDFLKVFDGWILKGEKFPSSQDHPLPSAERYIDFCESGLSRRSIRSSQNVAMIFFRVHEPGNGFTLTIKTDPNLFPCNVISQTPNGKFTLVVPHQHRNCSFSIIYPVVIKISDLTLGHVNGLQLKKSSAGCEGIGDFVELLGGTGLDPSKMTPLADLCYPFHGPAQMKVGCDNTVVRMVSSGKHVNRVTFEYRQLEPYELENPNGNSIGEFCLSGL

[2] = target: T2, Voltage-dependent T-type calcium channel subunit alpha-1H (Homo sapiens, UniProt O95180); format: functional;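 note: channel activity triggered by adding a high calcium stimulation buffer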
T2 sequence (O95180 whole entry): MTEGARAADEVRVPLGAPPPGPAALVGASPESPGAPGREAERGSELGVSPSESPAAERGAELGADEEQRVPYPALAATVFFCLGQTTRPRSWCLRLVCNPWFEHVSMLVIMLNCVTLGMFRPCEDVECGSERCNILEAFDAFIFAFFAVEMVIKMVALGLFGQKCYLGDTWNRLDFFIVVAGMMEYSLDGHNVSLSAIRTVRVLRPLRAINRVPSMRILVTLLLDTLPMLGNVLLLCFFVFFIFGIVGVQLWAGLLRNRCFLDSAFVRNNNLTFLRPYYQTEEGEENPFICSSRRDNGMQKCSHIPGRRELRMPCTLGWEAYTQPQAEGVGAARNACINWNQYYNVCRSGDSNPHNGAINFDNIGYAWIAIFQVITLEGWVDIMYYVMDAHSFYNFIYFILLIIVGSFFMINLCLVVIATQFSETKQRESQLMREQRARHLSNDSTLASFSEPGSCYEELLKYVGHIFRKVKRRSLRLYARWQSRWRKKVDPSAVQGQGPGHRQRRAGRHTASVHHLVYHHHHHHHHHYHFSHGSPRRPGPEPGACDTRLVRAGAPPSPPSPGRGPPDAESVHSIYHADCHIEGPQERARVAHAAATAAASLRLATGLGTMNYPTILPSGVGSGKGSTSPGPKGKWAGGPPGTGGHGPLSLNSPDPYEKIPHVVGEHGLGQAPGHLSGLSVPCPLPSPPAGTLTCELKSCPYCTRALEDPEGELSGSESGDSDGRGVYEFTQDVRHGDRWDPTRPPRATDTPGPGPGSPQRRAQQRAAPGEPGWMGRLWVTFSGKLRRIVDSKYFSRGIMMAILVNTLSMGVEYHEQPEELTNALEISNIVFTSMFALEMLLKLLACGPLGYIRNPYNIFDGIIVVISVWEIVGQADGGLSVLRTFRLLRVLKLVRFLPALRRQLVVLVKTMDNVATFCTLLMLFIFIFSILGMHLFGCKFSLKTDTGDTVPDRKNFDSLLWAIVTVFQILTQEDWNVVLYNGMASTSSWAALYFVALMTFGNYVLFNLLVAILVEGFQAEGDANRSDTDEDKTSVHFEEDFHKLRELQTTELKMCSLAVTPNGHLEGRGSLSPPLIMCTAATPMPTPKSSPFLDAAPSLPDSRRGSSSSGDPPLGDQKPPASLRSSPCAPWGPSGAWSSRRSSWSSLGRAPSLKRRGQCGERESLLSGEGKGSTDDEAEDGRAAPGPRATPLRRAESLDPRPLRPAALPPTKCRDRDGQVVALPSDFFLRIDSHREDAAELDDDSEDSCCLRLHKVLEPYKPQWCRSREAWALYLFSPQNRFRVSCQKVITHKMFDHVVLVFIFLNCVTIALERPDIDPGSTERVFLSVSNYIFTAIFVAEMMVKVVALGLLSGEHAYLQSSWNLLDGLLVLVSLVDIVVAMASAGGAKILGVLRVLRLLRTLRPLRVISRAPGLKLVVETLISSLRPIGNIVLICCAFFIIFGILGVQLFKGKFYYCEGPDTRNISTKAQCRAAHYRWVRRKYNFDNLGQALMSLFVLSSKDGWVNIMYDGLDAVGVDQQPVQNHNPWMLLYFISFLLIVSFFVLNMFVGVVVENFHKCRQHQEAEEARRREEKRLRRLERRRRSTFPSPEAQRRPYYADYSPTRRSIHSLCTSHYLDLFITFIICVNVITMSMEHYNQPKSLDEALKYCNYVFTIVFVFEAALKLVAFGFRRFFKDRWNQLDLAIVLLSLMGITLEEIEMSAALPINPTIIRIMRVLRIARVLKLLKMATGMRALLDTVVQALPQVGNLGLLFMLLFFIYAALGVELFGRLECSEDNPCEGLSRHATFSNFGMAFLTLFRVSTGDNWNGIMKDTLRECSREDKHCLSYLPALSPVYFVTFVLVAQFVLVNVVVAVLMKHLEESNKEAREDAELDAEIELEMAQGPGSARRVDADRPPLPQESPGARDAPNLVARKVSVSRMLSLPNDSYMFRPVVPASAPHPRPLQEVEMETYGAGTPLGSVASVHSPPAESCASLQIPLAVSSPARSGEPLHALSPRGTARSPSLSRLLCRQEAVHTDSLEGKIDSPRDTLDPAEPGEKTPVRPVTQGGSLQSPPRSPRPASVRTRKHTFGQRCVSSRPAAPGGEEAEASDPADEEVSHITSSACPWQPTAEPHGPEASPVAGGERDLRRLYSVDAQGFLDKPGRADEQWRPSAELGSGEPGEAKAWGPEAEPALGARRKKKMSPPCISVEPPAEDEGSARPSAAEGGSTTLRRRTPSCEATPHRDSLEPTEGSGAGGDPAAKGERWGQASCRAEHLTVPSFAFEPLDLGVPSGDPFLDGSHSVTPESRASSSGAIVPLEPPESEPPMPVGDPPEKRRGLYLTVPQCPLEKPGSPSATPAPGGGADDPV

[3] = target: T1, Corticotropin-releasing factor receptor 2/Corticotropin-releasing factor-binding protein; experiment: activators of CRF receptor 2 with binding protein – uHTS hits, confirmation (AID 602473); format: functional; settings: read-out: EC50_Mean
[4] = HepG2 cell cytotoxicity, dose response, cytotoxicity control for non-replicating M. tuberculosis project (AID 489018); format: functional; settings: Mycobacterium tuberculosis
[5] = THP-1 cell cytotoxicity, dose response, cytotoxicity control for non-replicating M. tuberculosis project (AID 489025); format: functional
[6] = cells; format: functional
[7] = protection from phage-mediated lysis, alamar blue read-out – E. coli UTI89, K1F phage, bacterial capsule biogenesis inhibitors (AID 488966); format: functional
[8] = target: T2, Voltage-dependent T-type calcium channel subunit alpha-1H; experiment: human CACNA1H calcium influx blockade – cell-based, synthetic library set 1, calcium flux (AID 493022); format: functional
[9] = target: T3, Voltage-gated N-type calcium channel alpha-1B subunit/Amyloid beta A4 precursor protein-binding family A member 1 (Homo sapiens, UniProt Q00975+Q02410); experiment: disruptors of Mint-PDZ/N-type channel peptide interaction – biochemical, HTRF, SAR follow-up (AID 2489); format: functional
[10] = target: T3, Voltage-gated N-type calcium channel alpha-1B subunit/Amyloid beta A4 precursor protein-binding family A member 1; experiment: disruptors of Mint-PDZ/N-type channel peptide interaction – biochemical, HTRF, set 2, SAR follow-up (AID 434980); format: functional
[11] = target: G-protein coupled receptor 55 (Homo sapiens, UniProt Q9Y2T6); experiment: inhibition of LPI-stimulated GPR55 beta-arrestin translocation – imaging, U2OS, beta-arrestin-GFP, LPI agonist, primary screen (AID 2013); format: functional;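 note: antagonist potency measured as reduced agonist-driven arrestin aggregation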
[12] = target: T4, Nucleotide-binding oligomerization domain-containing protein 2 (Homo sapiens, UniProt Q9HC29); experiment: PubChem AID 2334; format: functional
T4 sequence (Q9HC29 whole entry, the tested form may be a part): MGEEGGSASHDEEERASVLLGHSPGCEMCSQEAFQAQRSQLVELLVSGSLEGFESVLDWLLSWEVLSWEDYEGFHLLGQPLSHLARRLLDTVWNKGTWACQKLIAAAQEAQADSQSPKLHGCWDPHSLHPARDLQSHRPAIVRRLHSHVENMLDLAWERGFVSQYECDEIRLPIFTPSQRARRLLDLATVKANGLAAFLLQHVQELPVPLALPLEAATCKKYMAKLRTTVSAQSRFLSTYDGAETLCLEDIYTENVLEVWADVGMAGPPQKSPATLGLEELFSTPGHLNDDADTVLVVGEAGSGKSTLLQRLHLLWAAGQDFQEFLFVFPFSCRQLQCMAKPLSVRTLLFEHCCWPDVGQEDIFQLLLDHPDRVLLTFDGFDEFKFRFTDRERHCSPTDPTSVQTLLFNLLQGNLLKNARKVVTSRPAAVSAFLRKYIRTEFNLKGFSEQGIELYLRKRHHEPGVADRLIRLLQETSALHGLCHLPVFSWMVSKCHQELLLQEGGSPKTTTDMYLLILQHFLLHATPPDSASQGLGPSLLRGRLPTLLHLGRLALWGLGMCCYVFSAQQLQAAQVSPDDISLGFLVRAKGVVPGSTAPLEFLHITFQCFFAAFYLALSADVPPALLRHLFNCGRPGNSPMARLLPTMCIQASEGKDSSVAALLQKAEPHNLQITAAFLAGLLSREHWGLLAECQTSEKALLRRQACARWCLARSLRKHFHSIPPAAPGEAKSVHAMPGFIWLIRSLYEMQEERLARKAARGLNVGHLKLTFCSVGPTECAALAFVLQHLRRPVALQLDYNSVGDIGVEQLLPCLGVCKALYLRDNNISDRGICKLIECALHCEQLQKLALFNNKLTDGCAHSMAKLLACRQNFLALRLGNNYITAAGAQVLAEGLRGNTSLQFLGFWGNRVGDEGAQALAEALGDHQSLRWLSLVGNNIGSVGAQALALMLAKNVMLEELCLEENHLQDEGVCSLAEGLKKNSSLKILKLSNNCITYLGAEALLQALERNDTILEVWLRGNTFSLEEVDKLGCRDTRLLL

[13] = target: Tumor necrosis factor (Homo sapiens, UniProt P01375); experiment: analog potency on TNFa NF-kB signaling – cell-based, revised, SAR follow-up (AID 2337); format: functional
[14] = target: T4, Nucleotide-binding oligomerization domain-containing protein 2; experiment: inhibition of NOD2-driven NF-kB reporter – cell-based, luminescence, uHTS, HEK293 (AID 1566); format: functional
[15] = target: T5, Nucleotide-binding oligomerization domain-containing protein 1 (Homo sapiens, UniProt Q9Y239); experiment: blockers of NOD1 pathway activity – revised, SAR follow-up (AID 2333); format: functional
T5 sequence (Q9Y239 whole entry): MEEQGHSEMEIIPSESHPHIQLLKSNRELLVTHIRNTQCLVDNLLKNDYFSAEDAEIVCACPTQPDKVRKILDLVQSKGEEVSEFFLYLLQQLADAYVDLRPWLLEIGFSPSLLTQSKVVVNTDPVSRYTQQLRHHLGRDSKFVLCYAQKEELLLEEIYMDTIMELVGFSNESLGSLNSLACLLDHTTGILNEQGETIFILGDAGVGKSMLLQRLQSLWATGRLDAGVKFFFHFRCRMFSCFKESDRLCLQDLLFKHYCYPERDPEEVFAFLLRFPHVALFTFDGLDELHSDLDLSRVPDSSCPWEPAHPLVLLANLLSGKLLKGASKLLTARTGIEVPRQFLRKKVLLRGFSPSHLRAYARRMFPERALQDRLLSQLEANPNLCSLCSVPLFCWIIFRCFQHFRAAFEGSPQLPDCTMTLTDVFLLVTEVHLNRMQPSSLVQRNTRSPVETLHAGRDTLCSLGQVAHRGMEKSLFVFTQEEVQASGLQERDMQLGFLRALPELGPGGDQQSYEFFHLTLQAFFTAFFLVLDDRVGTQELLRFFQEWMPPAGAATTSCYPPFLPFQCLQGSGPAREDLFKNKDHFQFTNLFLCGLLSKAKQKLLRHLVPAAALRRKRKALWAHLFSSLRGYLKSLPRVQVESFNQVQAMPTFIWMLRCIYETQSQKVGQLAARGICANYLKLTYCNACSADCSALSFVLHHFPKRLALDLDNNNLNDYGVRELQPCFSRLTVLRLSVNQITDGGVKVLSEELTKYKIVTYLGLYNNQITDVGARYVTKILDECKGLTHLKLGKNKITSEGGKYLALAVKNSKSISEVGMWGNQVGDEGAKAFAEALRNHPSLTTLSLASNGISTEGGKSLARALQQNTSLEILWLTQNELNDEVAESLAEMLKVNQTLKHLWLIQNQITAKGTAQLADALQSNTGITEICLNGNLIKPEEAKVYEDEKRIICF

[16] = target: Intestinal-type alkaline phosphatase (Homo sapiens, UniProt P09923); experiment: Dose Response confirmation of uHTS hits from a small molecule inhibitors of human intestinal alkaline phosphatase via a luminescent assay. [Related pubchem assays (depositor defined):AID2544, AID2574]; format: functional
Sequence of Intestinal-type alkaline phosphatase (P09923 whole entry): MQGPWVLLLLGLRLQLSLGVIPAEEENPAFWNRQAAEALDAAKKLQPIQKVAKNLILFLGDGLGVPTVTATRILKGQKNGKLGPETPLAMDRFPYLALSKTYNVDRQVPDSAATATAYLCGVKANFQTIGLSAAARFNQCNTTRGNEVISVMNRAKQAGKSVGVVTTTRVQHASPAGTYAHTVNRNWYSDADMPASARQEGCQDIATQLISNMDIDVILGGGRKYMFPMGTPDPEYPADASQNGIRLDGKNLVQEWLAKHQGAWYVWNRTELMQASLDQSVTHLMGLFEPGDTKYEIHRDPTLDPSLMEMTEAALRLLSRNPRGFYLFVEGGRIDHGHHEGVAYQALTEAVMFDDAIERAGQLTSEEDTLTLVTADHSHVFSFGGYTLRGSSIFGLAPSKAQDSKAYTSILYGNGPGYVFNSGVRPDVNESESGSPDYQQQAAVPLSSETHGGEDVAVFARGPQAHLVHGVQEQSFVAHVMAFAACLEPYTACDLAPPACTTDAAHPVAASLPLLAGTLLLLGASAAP

[17] = target: T6, Delta-type opioid receptor (Homo sapiens, UniProt P41143); experiment: DOR agonists, SAR follow-up, image-based (AID 2370); format: functional
T6 sequence (P41143 whole entry): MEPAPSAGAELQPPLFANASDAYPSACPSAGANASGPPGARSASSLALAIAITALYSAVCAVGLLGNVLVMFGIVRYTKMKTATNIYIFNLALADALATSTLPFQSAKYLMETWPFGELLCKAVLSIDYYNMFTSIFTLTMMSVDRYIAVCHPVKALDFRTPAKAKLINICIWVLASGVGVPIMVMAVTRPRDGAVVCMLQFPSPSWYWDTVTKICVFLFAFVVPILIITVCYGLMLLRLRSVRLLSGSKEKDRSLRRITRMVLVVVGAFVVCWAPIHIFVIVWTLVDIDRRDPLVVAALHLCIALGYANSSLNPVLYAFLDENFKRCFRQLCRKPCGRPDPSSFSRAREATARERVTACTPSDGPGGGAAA

[18] = target: T7, Kappa-type opioid receptor (Homo sapiens, UniProt P41145); experiment: kappa opioid receptor activation potency – imaging, image-based, SAR follow-up (AID 2359); format: functional
T7 sequence (P41145 whole entry): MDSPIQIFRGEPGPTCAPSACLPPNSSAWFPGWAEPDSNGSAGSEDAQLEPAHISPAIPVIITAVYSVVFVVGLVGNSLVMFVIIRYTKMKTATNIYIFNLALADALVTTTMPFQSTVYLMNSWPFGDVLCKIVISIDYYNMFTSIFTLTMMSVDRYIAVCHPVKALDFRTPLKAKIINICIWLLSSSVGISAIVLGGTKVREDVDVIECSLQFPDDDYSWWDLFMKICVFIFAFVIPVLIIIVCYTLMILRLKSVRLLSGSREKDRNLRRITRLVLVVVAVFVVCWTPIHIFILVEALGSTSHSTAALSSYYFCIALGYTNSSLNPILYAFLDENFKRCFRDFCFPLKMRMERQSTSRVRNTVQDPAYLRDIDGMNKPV

[19] = target: T7, Kappa-type opioid receptor; experiment: kappa opioid receptor blockers, cell-based, luminescence, beta-arrestin, SAR follow-up (AID 2285); format: functional
[20] = target: T8, Mu-type opioid receptor (Homo sapiens, UniProt P35372); experiment: mu opioid receptor activators, image-based, SAR follow-up (AID 2352); format: functional
T8 sequence (P35372 whole entry): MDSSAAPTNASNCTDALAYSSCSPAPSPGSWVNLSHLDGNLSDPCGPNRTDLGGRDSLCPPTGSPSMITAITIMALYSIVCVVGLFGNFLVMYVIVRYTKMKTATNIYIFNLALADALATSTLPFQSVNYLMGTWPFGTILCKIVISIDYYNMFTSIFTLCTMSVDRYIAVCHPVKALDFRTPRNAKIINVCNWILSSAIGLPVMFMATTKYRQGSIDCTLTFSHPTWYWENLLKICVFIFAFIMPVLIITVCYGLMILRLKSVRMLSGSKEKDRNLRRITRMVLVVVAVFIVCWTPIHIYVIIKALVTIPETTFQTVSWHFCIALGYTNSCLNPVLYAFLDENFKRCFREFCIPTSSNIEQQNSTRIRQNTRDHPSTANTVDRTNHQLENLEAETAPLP

[21] = target: T8, Mu-type opioid receptor; experiment: mu opioid receptor blockers – image-based, SAR follow-up (AID 2420); format: functional;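 note: compounds added before stimulation of receptor with agonist DAMGO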
[22] = target: T6, Delta-type opioid receptor; experiment: delta opioid receptor blockers – image-based, SAR follow-up (AID 2357); format: functional
[23] = target: T7, Kappa-type opioid receptor; experiment: kappa opioid receptor blockers, image-based, SAR follow-up (AID 2348); format: functional
[24] = target: Female germline-specific tumor suppressor gld-1 (Caenorhabditis elegans, UniProt Q17339); experiment: blockers of GLD-1/TGE RNA complex formation – biochemical, fluorescence polarization, C. elegans, dose response (AID 2802);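 note: fluorescence polarization of labeled TGE RNA bound by purified gld-1 protein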
[25] = target: Protein Rev (Human immunodeficiency virus type 1 group M subtype B (isolate HXB2)(HIV-1), UniProt P04618); experiment: blockers of HIV Rev/RRE RNA complex – biochemical, fluorescence polarization, HIV-1, dose response (AID 434976); set-up: species or system Human immunodeficiency virus 1

Q: With COc1ccc(C(c2nnnn2Cc2ccccc2)N2CCN(c3ccccc3)CC2)cc1 (stereo not given) as the compound, how does the IC50 [1] read?
A: > 47.1 µM (inactive)

Q: What about the EC50 [2] of the same compound?
A: 3.34 µM (active)

Q: What about the EC50 [3] of the same compound?
A: > 53 µM (inactive)

Q: Which CC50 [4] does the source give for Cc1ccc(-n2cc(CNCCc3cscn3)c(-c3ccc(F)cc3)n2)cc1 here?
A: 16.5 µM (active)

Q: What about the CC50 [5] of the same compound?
A: 23.1 µM (active)

Q: And the IC50 [6]?
A: 12.7 µM (active)

Q: For CCOc1ccc(NC(=O)C2CCC(C)(C(=O)O)C2(C)C)cc1 (stereo not given), which IC50 [7] is on record?
A: > 300 µM (active)

Q: For O=C(COc1ccc(F)cc1)Nc1nnc(-c2ccc3c(c2)CCCC3)o1, which EC50 [8] is on record?
A: 2.1 µM (active)

Q: Which IC50 [9] does the source give for CC12C=CC(C)(O1)C1C(=O)N(c3ccccc3)C(=O)C12 (stereo not given) here?
A: 11.7 µM (active)

Q: And the IC50 [10]?
A: 10.5 µM (active)

Q: For Nc1nc(C23CC4CCC(CC(C4)C2)C3)cs1, which IC50 [11] is on record?
A: 7.48 µM (active)

Q: Which IC50 [12] does the source give for Cc1nn(-c2ccccc2)c2nc(C(Cl)(Cl)Cl)[nH]c(=O)c12 here?
A: 5.9 µM (active)

Q: What about the IC50 [13] of the same compound?
A: 6.62 µM (active)

Q: What about the EC50 [14] of the same compound?
A: 10.5 µM (active)

Q: What about the IC50 [15] of the same compound?
A: 4.5 µM (active)

Q: Which IC50 [16] does the source give for c1ccc(-c2nnc(CN3CCC4(CC3)OCCO4)o2)cc1 here?
A: > 100 µM (inactive)

Q: Which EC50 [17] does the source give for Cc1ccc(-n2[nH]c(C)c(C=Nc3ccc(Cl)c4cccnc34)c2=O)cc1 here?
A: 14.8 µM (inactive)

Q: What about the EC50 [18] of the same compound?
A: 3.85 µM (active)

Q: What about the IC50 [19] of the same compound?
A: > 10 µM (inactive)

Q: What about the EC50 [20] of the same compound?
A: 2.73 µM (active)

Q: What about the IC50 [21] of the same compound?
A: > 32 µM (inactive)

Q: And the IC50 [22]?
A: > 32 µM (inactive)

Q: And the IC50 [23]?
A: > 32 µM (inactive)

Q: Which IC50 [24] does the source give for CCN(CC)S(=O)(=O)c1ccc(N2CCCC2)c(NS(=O)(=O)c2ccc(F)cc2)c1 here?
A: 4.04 µM (active)

Q: What about the IC50 [25] of the same compound?
A: > 75.4 µM (not active)
